In patent US10519111B2, “UV absorbing compounds, compositions comprising same and uses thereof” (CORAL SUNSCREEN PTY LTD, priority 2013, dated 2019):

Assays:
[1] = UV absorption properties (λmax, molar extinction coefficient ε, efficiency E 1%, 1 cm); format: physicochemical; settings: for ε: in M-1 cm-1
[2] = Critical wavelength (λcrit), approximate in-house measurement; format: physicochemical
Excerpt: As the precise test for critical wavelength was unable to be replicated exactly by the inventors due to the need for specialist equipment and a specific calibration of the spectrophotometer, these values are only approximate to a degree. […] This represents a highly useful result and so, compounds based around this benzoyl substitution pattern shown, are especially preferred.

[3] = Table 13B, miscellaneous compounds
[4] = Table 13B, values in order of the λmax values
[5] = Table 3, compounds from isocyanates or isothiocyanates

Structure (SMILES) | λmax [1, 3] [nm] | E (1%, 1 cm) [1, 4] | ε [1, 4] | λcrit ([2]; Table 13B) [nm] | Ε (1%, 1 cm) ([1]; Table 3) | λmax [1, 5] [nm] | ε ([1]; Table 3) | λcrit ([2]; Table 3) [nm]
C=CC(=O)C1=CN(c2ccc(C)cc2)CCC1(C)C | 348 | 1045 | 26657 | 377 | – | – | – | –
CCCCNc1ccc(C(=O)C2=CN(C(C)(C)C)CCC2(C)C)cc1 | 316 | 626 | 21545 | 360 | – | – | – | –
CC1(C)CCN(C(C)(C)C)C=C1C(=O)N(Cc1ccc(CN(C(=O)C2=CN(C(C)(C)C)CCC2(C)C)c2ccccc2)cc1)c1ccccc1 | 314 | 391 | 26421 | 365 | – | – | – | –
CCC(=O)C1=CN(c2ccc(Oc3ccc(N4C=C(C(=O)CC)C(C)(C)CC4)cc3)cc2)CCC1(C)C | 334 | 1121 | 58063 | 353 | – | – | – | –
Cc1cc(-c2ccc(N3C=C(C(=O)C(F)(F)F)C(C)(C)CC3)c(C)c2)ccc1N1C=C(C(=O)C(F)(F)F)C(C)(C)CC1 | 331 | 1207 | 71432 | 354 | – | – | – | –
Cc1cc(-c2ccc(N3C=C(C(=O)C(F)(F)F)C(C)(C)CC3)c(C)c2)ccc1N1C=CC(C)(C)C(C(=O)C(F)(F)F)=C1 | 326 | 859 | 50670 | 378 | – | – | – | –
CCC(=O)C1=CN(c2ccc(-c3ccc(N4C=C(C(=O)CC)C(C)(C)CC4)c(C)c3)cc2C)CCC1(C)C | 328 | 1234 | 63191 | 349 | – | – | – | –
Cc1cc(/C=C/C(=O)C2=CN(C(C)(C)C)CCC2(C)C)c(C)cc1Br | 360 | 532 | 21473 | 386 | – | – | – | –
Cc1cc(/C=C/C(=O)C2=CN(C(C)(C)C)CCC2(C)C)c(C)cc1/C=C/C(=O)C1=CN(C(C)(C)C)CCC1(C)C | 385 | 591 | 32159 | 390 | – | – | – | –
COC(=O)c1cc(Br)ccc1/C=C/C(=O)C1=CN(C(C)(C)C)CCC1(C)C | 362 | 411 | 13489 | 386 | – | – | – | –
COC(=O)c1cc(/C=C/C(=O)C2=CN(C(C)(C)C)CCC2(C)C)ccc1/C=C/C(=O)C1=CN(C(C)(C)C)CCC1(C)C | 383 | 525 | 30128 | 389 | – | – | – | –
CCCCCCC(=O)C1=CN(c2ccc(N3C=C(C(=O)CCCCCC)C(C)(C)CC3)cc2)CCC1(C)C | 359 | – | – | 378 | – | – | – | –
CCOC(=O)c1cc(/C=C/C(=O)C2=CN(C(C)(C)C)CCC2(C)C)c(C(=O)OCC)cc1/C=C/C(=O)C1=CN(C(C)(C)C)CCC1(C)C | 383 | 355 | 23457 | 388 | – | – | – | –
COc1cc(/C=C/C(=O)C2=CN(C(C)(C)C)CCC2(C)C)c(OC)cc1/C=C/C(=O)C1=CN(C(C)(C)C)CCC1(C)C | 402 | 559 | 32220 | 391 | – | – | – | –
CC1(C)CCN(C(C)(C)C)C=C1C(=O)/C=C/c1ccc(/C=C/C(=O)C2=CN(C(C)(C)C)CCC2(C)C)c([N+](=O)[O-])c1 | 391 | 369 | 24359 | 388 | – | – | – | –
CC1(C)CCN(C(C)(C)C)C=C1C(=O)c1ccc(N2CCN(c3ccc(C(=O)C4=CN(C(C)(C)C)CCC4(C)C)cc3)CC2)cc1 | 323 | 830 | 51851 | 356 | – | – | – | –
CCCCC(CC)CNc1ccc(C(=O)C2=CN(C(C)(C)C)CCC2(C)C)cc1 (stereo not shown) | 318 | 551 | 21936 | 362 | – | – | – | –

Structure (SMILES) | λmax [1, 3] [nm] | E (1%, 1 cm) [1, 4] | ε [1, 4] | λcrit ([2]; Table 13B) [nm] | Ε (1%, 1 cm) ([1]; Table 3) | λmax [1, 5] [nm] | ε ([1]; Table 3) | λcrit ([2]; Table 3) [nm]
CCC(=O)C1=CN(c2ccc(N3C=C(C(=O)CC)C(C)(C)CC3)cc2)CCC1(C)C | 357 | 1290 | 52638 | 377 | – | – | – | –
CCCCCCCCCC(=O)C1=CN(c2ccc(N3C=C(C(=O)CCCCCCCCC)C(C)(C)CC3)cc2)CCC1(C)C | 359 | 898 | 54278 | 378 | – | – | – | –
CCCCCCCCCCCCCCCCCC(=O)C1=CN(c2ccc(N3C=C(C(=O)CCCCCCCCCCCCCCCCC)C(C)(C)CC3)cc2)CCC1(C)C | 359 | 447 | 37068 | 379 | – | – | – | –
CCCOC(=O)CCC(=O)C1=CN(c2ccc(N3C=C(C(=O)CCC(=O)OCCC)C(C)(C)CC3)cc2)CCC1(C)C | 358 | 820 | 47560 | 377 | – | – | – | –
CC1(C)CCN(c2ccc(N3C=C(C(=O)CC4CCCCC4)C(C)(C)CC3)cc2)C=C1C(=O)CC1CCCCC1 | 360 | 1030 | 56032 | 379 | – | – | – | –
CCCCCCC(=O)C1=CN(c2ccc(N3C=C(C(=O)CC(C)CCC=C(C)C)C(C)(C)CC3)cc2)CCC1(C)C (stereo not shown) | 358 | 934 | 52353 | 378 | – | – | – | –
CC(C)(C)CC(C)(C)N1C=C(C(=O)/C=C/c2ccc(/C=C/C(=O)C3=CN(C(C)(C)CC(C)(C)C)CCC3(C)C)cc2)C(C)(C)CC1 | 386 | 486 | 31937 | 390 | – | – | – | –
CC(C)(C)CC(C)(C)N1C=C(C(=O)/C=C/c2ccc(Br)cc2)C(C)(C)CC1 | 360 | 437 | 18987 | 386 | – | – | – | –
CC(C)(C)CC(C)(C)N1C=C(C(=O)/C=C/c2ccc(/C=C/C(=O)Cl)cc2)C(C)(C)CC1 | 374 | 434 | 19194 | 385 | – | – | – | –
CC1(C)CCN(C(C)(C)C)C=C1C(=O)Nc1ccccc1 [drawing 57] | – | – | – | – | 1217 | 308 | 34834 | 326
CN(C(=O)C1=CN(C(C)(C)C)CCC1(C)C)c1ccccc1 [drawing 58] | – | – | – | – | 506 | 312 | 15174 | 337
CC1(C)CCN(C(C)(C)C)C=C1C(=O)NCCCCCCNC(=O)C1=CN(C(C)(C)C)CCC1(C)C [drawing 59] | – | – | – | – | 619 | 289 | 31072 | 314
CC1(C)CCN(C(C)(C)C)C=C1C(=S)Nc1ccccc1 [drawing 60] | – | – | – | – | 691 | 363 | 20881 | 387
CCCCNC(=O)C1=CN(C(C)(C)C)CCC1(C)C [drawing 61] | – | – | – | – | 799 | 288 | 22531 | 312
Cc1ccc(NC(=O)C2=CN(C(C)(C)C)CCC2(C)C)cc1NC(=O)C1=CN(C(C)(C)C)CCC1(C)C [drawing 62] | – | – | – | – | 1174 | 308 | 59763 | 329
CC1(C)CCN(C(C)(C)C)C=C1C(=O)Nc1ccc(Cc2ccc(NC(=O)C3=CN(C(C)(C)C)CCC3(C)C)cc2)cc1 [drawing 63] | – | – | – | – | 1105 | 310 | 64589 | 328
